What is called pEC50 is the EC50 on a negative log10 scale, so that one unit is a factor of ten. Usually pKi stands for the Ki on a negative log10 scale, so that one unit is a factor of ten.

The structures appear in SMILES notation. pEC50, pKi: −log10 of the molar value. Bounds are passed on as bounds.

EC50 and Ki data for 18 compounds are collected here from patent publication US8889668B2, “Oxadiazole diaryl compounds” (Merck Serono SA, priority 2007, dated 2014).

Assay [1] deals with T1, S1P1 (Homo sapiens (Human), UniProt P21453). As to the kind of experiment: 35S-GTPγS binding, membranes from CHO cells expressing S1P1. In kind it is biochemical. To be noted: 60 min 30° C., read-out: S1P1 GTPgS EC50. On the technique in general: GTPγS is a poorly hydrolysed GTP analogue; its binding reports G protein activation.
T1 sequence (P21453 whole entry, species assumed): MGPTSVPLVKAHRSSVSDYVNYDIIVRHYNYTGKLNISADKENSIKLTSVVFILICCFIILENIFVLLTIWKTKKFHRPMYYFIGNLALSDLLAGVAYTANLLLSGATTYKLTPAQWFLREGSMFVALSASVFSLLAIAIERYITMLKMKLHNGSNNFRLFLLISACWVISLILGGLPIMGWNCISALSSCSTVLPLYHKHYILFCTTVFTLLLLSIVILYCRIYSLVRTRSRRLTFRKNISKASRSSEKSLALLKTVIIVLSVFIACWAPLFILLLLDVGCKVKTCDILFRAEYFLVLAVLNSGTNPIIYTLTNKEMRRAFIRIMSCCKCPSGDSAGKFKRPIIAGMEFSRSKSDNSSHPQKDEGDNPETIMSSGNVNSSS
A further assay concerns the target S1P3 (Homo sapiens (Human), UniProt Q99500). As to the kind of experiment: 35S-GTPγS binding, membranes from CHO cells expressing S1P3. To be noted: 60 min 30° C., read-out: S1P3 GTPgs EC50. Type of assay: biochemical. As for the experimental part:
(§1) Receptor binding assay: Membranes were prepared from CHO cells expressing S1P1 or S1P3 for use in ligand and […] binding studies. Cells were suspended in 50 mM TRIS, pH 7.4, 2 mM EDTA, 250 mM Sucrose (buffer A) and 1× Complete protease inhibitor cocktail (Roche), and disrupted at 4° C. by nitrogen decompression using a cell disruption bomb (Parr Instrument). Following centrifugation at 1000 RPM for 10 min at 4° C., the supernatant was suspended in buffer A and centrifuged again at 19000 RPM for 60 min at 4° C. The pellet was then suspended in 10 mM HEPES, pH 7.4, 1 mM EDTA, 250 mM Sucrose (Buffer B), and 1× Complete EDTA-free protease inhibitor cocktail and homogenized using a potter. Membranes were flash frozen in liquid nitrogen and stored at −80° C. [33P]sphingosine 1-phosphate (3000 Ci/mmol; American Radiolabeled Chemicals, Inc.) was added to test compounds in DMSO. Membranes and WGA SPA beads (GE Healthcare) were added to give a final volume of 100 μl in 96-well plates with assay concentrations of 25 pM or 10 pM [33P]sphingosine 1-phosphate (respectively for S1P1 or S1P3), 50 mM HEPES, pH 7.5, 5 mM MgCl2, 100 mM NaCl, 0.4% fatty acid-free BSA, 1-5 μg/well of proteins and 100 μg/well of WGA SPA beads. Binding was performed for 60 min at room temperature on a shaker and bound radioactivity was measured on a PerkinElmer 1450 MicroBeta counter. Specific binding was calculated by subtracting remaining radioactivity in the presence of 1000-fold excess of unlabeled S1P. Binding data were analyzed using the GraphPad Prism program.
Measurements of ^35S-GTPγS Binding: Membranes (1 to 10 μg protein) prepared as described above, were incubated in 96-well Scintiplates (PerkinElmer) with test compounds diluted in DMSO, in 180 μl of 20 mM HEPES, pH 7.4, 10 mM MgCl2, 2 μg/well Saponin, 0.2% fatty acid free BSA (Assay buffer), 140 mM NaCl and 1.7 μM GDP. The assay was initiated with the addition of 20 μl of 1.5 nM [35S]-GTPγS (1100 Ci/mmol; GE Healthcare) in assay buffer. After 60 min incubation at 30° C. on a shaker, plates were centrifuged for 10 min at 2000 RPM. Supernatant was discarded and membrane bound radioactivity was measured on a PerkinElmer 1450 MicroBeta counter. Triplicate samples were averaged and expressed as % response relative to S1P activation in absence of compound (n=2).

The target of assay [2] is T1, S1P1. The assay can be described thus: Receptor binding assay, [33P]sphingosine 1-phosphate, membranes from CHO cells expressing S1P1. Particulars: [33P]S1P 25 pM, SPA. On the procedure:
as §1

S1P3, sequence (Q99500 whole entry, species assumed): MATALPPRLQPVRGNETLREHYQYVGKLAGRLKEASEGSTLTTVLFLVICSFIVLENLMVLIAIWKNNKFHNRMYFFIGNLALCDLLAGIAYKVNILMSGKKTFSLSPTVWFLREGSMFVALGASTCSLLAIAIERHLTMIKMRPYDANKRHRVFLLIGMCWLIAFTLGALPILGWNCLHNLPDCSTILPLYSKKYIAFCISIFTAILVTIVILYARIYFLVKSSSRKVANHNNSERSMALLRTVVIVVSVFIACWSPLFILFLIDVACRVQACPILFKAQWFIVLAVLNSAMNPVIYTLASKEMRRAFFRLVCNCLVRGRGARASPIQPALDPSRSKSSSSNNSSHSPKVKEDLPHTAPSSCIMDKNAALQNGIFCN

`Cc1cc(-c2nc(-c3ccccc3OC(F)(F)F)no2)ccc1-c1ccccc1C(F)(F)F` [Compound I23, 5-[2-methyl-2′-(trifluoromethyl)biphenyl-4-yl]-3-[2-(trifluoromethoxy)phenyl]-1,2,4-oxadiazole]: the pEC50 on S1P1 [1] was 8.00; on S1P3, less than 4.52. The compound further gave a pKi at S1P1 [2] of 7.80.

Consider `COc1ccccc1-c1noc(-c2ccc(-c3cscc3C)c(C)c2)n1` [Compound I25, 3-(2-methoxyphenyl)-5-[3-methyl-4-(4-methyl-3-thienyl)phenyl]-1,2,4-oxadiazole], for which the pEC50 at S1P1 [1] is 8.05; on S1P3, 5.26. Further, the pKi at S1P1 [2] was 8.52.

Turning to `COc1ccccc1-c1noc(-c2ccc(-c3ccccc3C)c([N+](=O)[O-])c2)n1` [Compound I26, 3-(2-methoxyphenyl)-5-(2′-methyl-2-nitrobiphenyl-4-yl)-1,2,4-oxadiazole], the pEC50 is 8.05 on S1P1 [1] and 5.30 on S1P3. On S1P1 [2], the pKi is 8.70.

Consider `COc1ccccc1-c1noc(-c2ccc(C3CCCCC3)cc2)n1` [Compound I27, 5-(4-cyclohexylphenyl)-3-(2-methoxyphenyl)-1,2,4-oxadiazole], for which the pEC50 on S1P1 [1] is 7.18; at S1P3, less than 4.52. On S1P1 [2], the pKi was 7.70.

For the compound `COc1ccccc1-c1noc(-c2ccc(CC(C)C)cc2)n1` [Compound I28, 5-(4-isobutylphenyl)-3-(2-methoxyphenyl)-1,2,4-oxadiazole], the values for the pEC50 on S1P1 [1] and at S1P3 were 6.79 and less than 4.52, respectively. Further, at S1P1 [2], the pKi was 7.04.

For `COc1ccc(F)cc1-c1noc(-c2ccc(N3CCCCC3C)c([N+](=O)[O-])c2)n1` (stereo not drawn) [Compound I32, 1-{4-[3-(5-fluoro-2-methoxyphenyl)-1,2,4-oxadiazol-5-yl]-2-nitrophenyl}-2-methylpiperidine], the results for the pEC50 on S1P1 [1] and on S1P3 were 8.70 and 5.77, respectively. Also, at S1P1 [2], the pKi is 9.00.

With `CC1CCCCN1c1ccc(-c2nc(-c3ccccc3OC(F)(F)F)no2)cc1C(F)(F)F` (stereo not drawn) [Compound I34, 2-methyl-1-[4-{3-[2-(trifluoromethoxy)phenyl]-1,2,4-oxadiazol-5-yl}-2-(trifluoromethyl)phenyl]piperidine], the pEC50 on S1P1 [1] was 8.22; on S1P3 it was less than 4.70. The same compound had a pKi on S1P1 [2] of 8.30.

Regarding `COc1ccccc1-c1noc(-c2ccc(N3CCCCC3C)c(C(F)(F)F)c2)n1` (stereo not drawn) [Compound I35, 1-[4-[3-(2-methoxyphenyl)-1,2,4-oxadiazol-5-yl]-2-(trifluoromethyl)phenyl]-2-methylpiperidine], the pEC50 at S1P1 [1] is 8.70; on S1P3 it was 6.19. Besides, the pKi at S1P1 [2] was 8.52.

As to `Cc1cc(-c2nc(-c3ccccc3OC(F)(F)F)no2)ccc1-c1cscc1C` [Compound I44, 5-[3-methyl-4-(4-methyl-3-thienyl)phenyl]-3-[2-(trifluoromethoxy)phenyl]-1,2,4-oxadiazole], the pEC50 on S1P1 [1] is 8.52; on S1P3 it was less than 4.70. This compound had a pKi on S1P1 [2] of 8.30.

Consider `COc1ccccc1-c1noc(-c2ccc(-c3cscc3C)c(OC)c2)n1` [Compound I48, 5-[3-methoxy-4-(4-methyl-3-thienyl)phenyl]-3-(2-methoxyphenyl)-1,2,4-oxadiazole], for which the pEC50 on S1P1 [1] was 8.30; at S1P3 it was 5.66. This compound showed a pKi at S1P1 [2] of 8.40.

`Cc1ccccc1-c1ccc(-c2nc(-c3ccccc3OC(F)(F)F)no2)cc1C(F)(F)F` [Compound I55, 5-[2′-methyl-2-(trifluoromethyl)biphenyl-4-yl]-3-[2-(trifluoromethoxy)phenyl]-1,2,4-oxadiazole]: the values for the pEC50 on S1P1 [1] and at S1P3 were 8.70 and less than 4.52, respectively. On S1P1 [2], this compound had a pKi of 8.10.

Regarding `COc1ccccc1-c1noc(-c2ccc(-c3cscc3C)c(C(F)(F)F)c2)n1` [Compound I57, 3-(2-methoxyphenyl)-5-[4-(4-methyl-3-thienyl)-3-(trifluoromethyl)phenyl]-1,2,4-oxadiazole], the pEC50 is 9.00 at S1P1 [1] and less than 4.70 on S1P3. Besides, the pKi at S1P1 [2] was 8.70.

`COc1ccc(F)cc1-c1noc(-c2ccc(N3CCCCC3)c(C(F)(F)F)c2)n1` [Compound I60, 1-[4-[3-(5-fluoro-2-methoxyphenyl)-1,2,4-oxadiazol-5-yl]-2-(trifluoromethyl)phenyl]piperidine]: the pEC50 at S1P1 [1] is 8.70; on S1P3, 6.21. This compound had a pKi at S1P1 [2] of 9.00.

With `COc1ccc(F)cc1-c1noc(-c2ccc(N3CCCCC3C)c(C(F)(F)F)c2)n1` (stereo not drawn) [Compound I63, 1-[4-[3-(5-fluoro-2-methoxyphenyl)-1,2,4-oxadiazol-5-yl]-2-(trifluoromethyl)phenyl]-2-methylpiperidine], the pEC50 is 9.00 at S1P1 [1] and 6.90 at S1P3. For the same compound, at S1P1 [2], the pKi was 8.52.

`COc1ccc(F)cc1-c1noc(-c2ccc(N3CCCCC3C)c(C#N)c2)n1` (stereo not drawn) [Compound I71, 5-[3-(5-fluoro-2-methoxyphenyl)-1,2,4-oxadiazol-5-yl]-2-(2-methylpiperidin-1-yl)benzonitrile]: the results for the pEC50 at S1P1 [1] and on S1P3 were 9.00 and 7.13, respectively. The compound also had a pKi on S1P1 [2] of 8.40.

As for `COc1ccc(F)cc1-c1noc(-c2ccc(N3CCCCC3C)c(NS(C)(=O)=O)c2)n1` (stereo not drawn) [Compound I72, N-[5-[3-(5-fluoro-2-methoxyphenyl)-1,2,4-oxadiazol-5-yl]-2-(2-methylpiperidin-1-yl)phenyl]methanesulfonamide], the values for the pEC50 on S1P1 [1] and on S1P3 were 8.10 and less than 4.70, respectively. The compound further had a pKi at S1P1 [2] of 7.34.

Take `COc1ccc(F)cc1-c1noc(-c2ccc(-c3ccccc3C)c(CO)c2)n1` [Compound I77, {4-[3-(5-fluoro-2-methoxyphenyl)-1,2,4-oxadiazol-5-yl]-2′-methylbiphenyl-2-yl}methanol]: the values for the pEC50 at S1P1 [1] and on S1P3 were 7.19 and 5.25, respectively. Moreover, at S1P1 [2], the pKi was 7.28.

On to `COc1ccc(F)cc1-c1noc(-c2ccc(-c3ccccc3C)c(CN(C)C)c2)n1` [Compound I78, 1-{4-[3-(5-fluoro-2-methoxyphenyl)-1,2,4-oxadiazol-5-yl]-2′-methylbiphenyl-2-yl}-N,N-dimethylmethanamine], for which the values for the pEC50 at S1P1 [1] and at S1P3 were 8.70 and 7.04, respectively. On S1P1 [2], this compound showed a pKi of 8.40.
